The source made the active and inactive calls. The calls are words filed in the database; no cut-off is given here.
Columns and labels:
NCI-H460 [1] = assay: Cytotoxicity against human NCI-H460 cells assessed as reduction in cell viability measured after 72 hrs by CCK8 assay; format: cell-based; details: NCI-H460, 72 h
A549 [2] = assay: Cytotoxicity against becatecarin-selected ABCG2-overexpressing human A549/Bec150 cells assessed as reduction in cell viability measured after 72 hrs by CCK8 assay; format: ADME, cell-based; details: A549, 72 h
ABCG2 = assay: Resistance factor, ratio of IC50 for mitoxantrone-selected ABCG2-overexpressing human NCI-H460/MX20 cells to IC50 for human NCI-H460 cells; format: ADME; details: read-out: Ratio IC50
NCI-H460 [3] = assay: Chemo-sensitizing activity against human NCI-H460 cells assessed as reversal fold at 1 uM measured after 72 hrs in presence of mitoxantrone by CCK8 assay relative to control; format: functional
NCI-H460 [4] = assay: Chemo-sensitizing activity against human NCI-H460 cells assessed as reversal fold at 5 uM measured after 72 hrs in presence of mitoxantrone by CCK8 assay relative to control; format: functional
NCI-H460 [5] = assay: Chemo-sensitizing activity against mitoxantrone-selected ABCG2-overexpressing human NCI-H460/MX20 cells assessed as reversal fold at 2 uM measured after 72 hrs in presence of mitoxantrone by CCK8 assay relative to control; format: functional
NCI-H460 [6] = assay: Chemo-sensitizing activity against human NCI-H460 cells assessed as reversal fold at 1 uM measured after 72 hrs in presence of topotecan by CCK8 assay relative to control; format: functional
NCI-H460 [7] = assay: Chemo-sensitizing activity against human NCI-H460 cells assessed as reversal fold at 5 uM measured after 72 hrs in presence of topotecan by CCK8 assay relative to control; format: functional
NCI-H460 [8] = assay: Chemo-sensitizing activity against mitoxantrone-selected ABCG2-overexpressing human NCI-H460/MX20 cells assessed as reversal fold at 5 uM measured after 72 hrs in presence of topotecan by CCK8 assay relative to control; format: functional
NCI/ADR-RES [9] = assay: Chemo-sensitizing activity against ABCB1-overexpressing human NCI/ADR-RES cells assessed as reversal fold at 5 uM measured after 72 hrs in presence of paclitaxel by CCK8 assay relative to control; format: functional
NCI/ADR-RES [10] = assay: Chemo-sensitizing activity against ABCB1-overexpressing human NCI/ADR-RES cells assessed as reversal fold at 2 uM measured after 72 hrs in presence of paclitaxel by CCK8 assay relative to control; format: functional
A549 [11] = assay: Chemo-sensitizing activity against human A549 cells assessed as reversal fold at 5 uM measured after 72 hrs in presence of mitoxantrone by CCK8 assay relative to control; format: functional
A549 [12] = assay: Chemo-sensitizing activity against becatecarin-selected ABCG2-overexpressing human A549/Bec150 cells assessed as reversal fold at 2 uM measured after 72 hrs in presence of mitoxantrone by CCK8 assay relative to control; format: functional
A549 [13] = assay: Chemo-sensitizing activity against human A549 cells assessed as reversal fold at 1 uM measured after 72 hrs in presence of topotecan by CCK8 assay relative to control; format: functional
A549 [14] = assay: Chemo-sensitizing activity against human A549 cells assessed as reversal fold at 2 uM measured after 72 hrs in presence of SN-38 by CCK8 assay relative to control; format: functional
A549 [15] = assay: Chemo-sensitizing activity against human A549 cells assessed as reversal fold at 5 uM measured after 72 hrs in presence of SN-38 by CCK8 assay relative to control; format: functional
HEK293 [16] = assay: Chemo-sensitizing activity against human HEK293 cells assessed as reversal fold at 2 uM measured after 72 hrs in presence of topotecan by CCK8 assay relative to control; format: functional
HEK293 [17] = assay: Chemo-sensitizing activity against human HEK293 cells assessed as reversal fold at 5 uM measured after 72 hrs in presence of SN-38 by CCK8 assay relative to control; format: functional
HEK293 [18] = assay: Chemo-sensitizing activity against ABCG2-overexpressing human HEK293/482R cells assessed as reversal fold at 2 uM measured after 72 hrs in presence of SN-38 by CCK8 assay relative to control; format: functional
HEK293 [19] = assay: Chemo-sensitizing activity against ABCG2-overexpressing human HEK293/482R cells assessed as reversal fold at 5 uM measured after 72 hrs in presence of SN-38 by CCK8 assay relative to control; format: functional
NCI/ADR-RES [20] = assay: Chemo-sensitizing activity against ABCB1-overexpressing human NCI/ADR-RES cells assessed as reversal fold at 2 uM measured after 72 hrs in presence of vincristine by CCK8 assay relative to control; format: functional
OVCAR-8 = assay: Chemo-sensitizing activity against human OVCAR-8 cells assessed as reversal fold at 1 uM measured after 72 hrs in presence of colchicine by CCK8 assay relative to control; format: functional
NCI/ADR-RES [21] = assay: Chemo-sensitizing activity against ABCB1-overexpressing human NCI/ADR-RES cells assessed as reversal fold at 2 uM measured after 72 hrs in presence of colchicine by CCK8 assay relative to control; format: functional
KB 3-1 [22] = assay: Chemo-sensitizing activity against human KB 3-1 cells assessed as reversal fold at 5 uM measured after 72 hrs in presence of vincristine by CCK8 assay relative to control; format: functional
KB-V1 = assay: Chemo-sensitizing activity against ABCB1-overexpressing human KB-V1 cells assessed as reversal fold at 5 uM measured after 72 hrs in presence of vincristine by CCK8 assay relative to control; format: functional
KB 3-1 [23] = assay: Chemo-sensitizing activity against human KB 3-1 cells assessed as reversal fold at 2 uM measured after 72 hrs in presence of colchicine by CCK8 assay relative to control; format: functional
HEK293 [24] = assay: Chemo-sensitizing activity against human HEK293 cells assessed as reversal fold at 1 uM measured after 72 hrs in presence of vincristine by CCK8 assay relative to control; format: functional
HEK293 [25] = assay: Chemo-sensitizing activity against human HEK293 cells assessed as reversal fold at 5 uM measured after 72 hrs in presence of vincristine by CCK8 assay relative to control; format: functional
HEK293 [26] = assay: Chemo-sensitizing activity against human HEK293 cells assessed as reversal fold at 2 uM measured after 72 hrs in presence of paclitaxel by CCK8 assay relative to control; format: functional
HEK293 [27] = assay: Chemo-sensitizing activity against human HEK293 cells assessed as reversal fold at 5 uM measured after 72 hrs in presence of paclitaxel by CCK8 assay relative to control; format: functional
HEK293 [28] = assay: Chemo-sensitizing activity against ABCB1-overexpressing human HEK293/MDR19 cells assessed as reversal fold at 5 uM measured after 72 hrs in presence of paclitaxel by CCK8 assay relative to control; format: functional
HEK293 [29] = assay: Chemo-sensitizing activity against human HEK293 cells assessed as reversal fold at 5 uM measured after 72 hrs in presence of colchicine by CCK8 assay relative to control; format: functional
HEK293 [30] = assay: Chemo-sensitizing activity against ABCB1-overexpressing human HEK293/MDR19 cells assessed as reversal fold at 2 uM measured after 72 hrs in presence of colchicine by CCK8 assay relative to control; format: functional
A549 [31] = assay: Effect on ABCG2 protein expression in becatecarin-selected ABCG2-overexpressing human A549/Bec150 cells at 1 to 5 uM incubated for 72 hrs by immunoblot analysis; format: functional, cell-based; details: dose 1-5 µM
[32] = Cytotoxicity against human HEK293 cells assessed as cell viability at 1 to 5 uM measured after 72 hrs by CCK8 assay; format: cell-based; details: dose 1-5 µM, read-out: Activity

In the case of `C=C(C)[C@H](CC=C(C)C)Cc1c(O)cc(O)c2c1O[C@H](c1ccc(O)cc1O)CC2=O` [SOPHORAFLAVANONE G], the IC50 (NCI-H460 [1]) is reported as 29.3 µM, the IC50 (A549 [2]) is reported as 21.3 µM and the selectivity ratio (ABCG2) is reported as 0.8. For the same molecule, the “fold change (FC)” value (NCI-H460 [3]) was 2.3, the “fold change (FC)” value (NCI-H460 [4]) was 2.2 and the “fold change (FC)” value (NCI-H460 [5]) was 2.7. For the same molecule, the “fold change (FC)” value (NCI-H460 [6]) was 1.6, the “fold change (FC)” value (NCI-H460 [7]) was 3 and the “fold change (FC)” value (NCI-H460 [8]) was 7.8. For the same molecule, the “fold change (FC)” value (NCI/ADR-RES [9]) was 1.4, the “fold change (FC)” value (NCI/ADR-RES [10]) was 1.1 and the “fold change (FC)” value (A549 [11]) was 1.8. For the same molecule, the “fold change (FC)” value (A549 [12]) was 5.9, the “fold change (FC)” value (A549 [13]) was 1.1 and the “fold change (FC)” value (A549 [14]) was 1.1. For the same molecule, the “fold change (FC)” value (A549 [15]) was 1.2, the “fold change (FC)” value (HEK293 [16]) was 0.9 and the “fold change (FC)” value (HEK293 [17]) was 1. The “fold change (FC)” value (HEK293 [18]) was 2.4, the “fold change (FC)” value (HEK293 [19]) was 6.4 and the “fold change (FC)” value (NCI/ADR-RES [20]) was 1. The “fold change (FC)” value (OVCAR-8) was 1, the “fold change (FC)” value (NCI/ADR-RES [21]) was 0.8 and the “fold change (FC)” value (KB 3-1 [22]) was 1.7. For the same molecule, the “fold change (FC)” value (KB-V1) was 1.3, the “fold change (FC)” value (KB 3-1 [23]) was 1.1 and the “fold change (FC)” value (HEK293 [24]) was 1. The “fold change (FC)” value (HEK293 [25]) was 0.9, the “fold change (FC)” value (HEK293 [26]) was 1 and the “fold change (FC)” value (HEK293 [27]) was 1.2. For the same molecule, the “fold change (FC)” value (HEK293 [28]) was 1.3, the “fold change (FC)” value (HEK293 [29]) was 1 and the “fold change (FC)” value (HEK293 [30]) was 0.8. The Activity (A549 [31]) was “inactive” and the viability at 72 h, 5 µM [32] was greater than 90%.

Source: ChEMBL document CHEMBL5055643, “Sophoraflavanone G Resensitizes ABCG2-Overexpressing Multidrug-Resistant Non-Small-Cell Lung Cancer Cells to Chemotherapeutic Drugs” (J Nat Prod, 2021)
